Columns and labels:
Experiment in all cases: Test C postemergence, plant response rating
Type in all cases: in vivo
[1] = test system: morningglory (Ipomoea coccinea); details: for Morningglory plant response rating: scale 0 to 100 (0 no effect, 100 complete control)
In short: (§1)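 Visual injury score, 0 = no effect, 100 = complete control, assigned against untreated controls after 13 to 15 d in the greenhouse. Compounds were applied in a surfactant-containing non-phytotoxic solvent mix, preemergence to seeded loam/sand or silt loam soil, or postemergence to 1- to 4-leaf plants (2 to 18 cm).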

soybean (Glycine max) = details: for Soybean plant response rating: scale 0 to 100 (0 no effect, 100 complete control)
In short: as §1

[2] = test system: chickweed (common chickweed, Stellaria media); details: for Chickweed plant response rating: scale 0 to 100 (0 no effect, 100 complete control)
In short: as §1

[3] = test system: foxtail, giant (giant foxtail, Setaria faberii); details: for Foxtail, Giant plant response rating: scale 0 to 100 (0 no effect, 100 complete control)
In short: as §1

[4] = test system: velvetleaf (Abutilon theophrasti); details: for Velvetleaf plant response rating: scale 0 to 100 (0 no effect, 100 complete control)
In short: as §1

[5] = test system: lambsquarters (Chenopodium album); details: for Lambsquarters plant response rating: scale 0 to 100 (0 no effect, 100 complete control)
In short: as §1

[6] = test system: oilseed rape (Brassica napus); details: for Oilseed Rape plant response rating: scale 0 to 100 (0 no effect, 100 complete control)
In short: as §1

[7] = test system: oat, wild (wild oat Avena fatua); details: for Oat, Wild plant response rating: scale 0 to 100 (0 no effect, 100 complete control)
In short: as §1

[8] = test system: nutsedge, yellow (yellow nutsedge, Cyperus esculentus); details: for Nutsedge, Yellow plant response rating: scale 0 to 100 (0 no effect, 100 complete control)
In short: as §1

corn (Zea mays) = details: for Corn plant response rating: scale 0 to 100 (0 no effect, 100 complete control)
In short: as §1

[9] = test system: blackgrass (Alopecurus myosuroides); details: for Plant response rating, Blackgrass: scale 0 to 100; for Blackgrass plant response rating: scale 0 to 100 (0 no effect, 100 complete control)
In short: as §1

[10] = test system: galium (catchweed bedstraw, Galium aparine); details: for Galium plant response rating: scale 0 to 100 (0 no effect, 100 complete control)
In short: as §1

[11] = test system: wheat (winter wheat, Triticum aestivum); details: for Wheat plant response rating: scale 0 to 100 (0 no effect, 100 complete control)
In short: as §1

kochia (Kochia scoparia) = details: for Kochia plant response rating: scale 0 to 100 (0 no effect, 100 complete control)
In short: as §1

[12] = test system: waterhemp (common waterhemp, Amaranthus rudis); details: for Waterhemp plant response rating: scale 0 to 100 (0 no effect, 100 complete control)
In short: as §1

[13] = test system: ragweed (common ragweed, Ambrosia elatior); details: for Ragweed plant response rating: scale 0 to 100 (0 no effect, 100 complete control)
In short: as §1

Structure (SMILES): O=C(CCCC(F)(F)F)c1c(Br)cccc1Oc1ncc(Cl)cn1 [Compound 77]
- Plant response rating, Morningglory ([1]; 16 g ai/ha, scale of 0 to 100): 50
- Plant response rating, Morningglory ([1]; 31 g ai/ha, scale 0 to 100): 85
- Morningglory plant response rating ([1]; 62 g ai/ha): 90
- Morningglory plant response rating ([1]; 125 g ai/ha): 80
- Plant response rating, Soybean (soybean (Glycine max); 16 g ai/ha, scale of 0 to 100): 25
- Plant response rating, Soybean (soybean (Glycine max); 31 g ai/ha, scale 0 to 100): 50
- Soybean plant response rating (soybean (Glycine max); 62 g ai/ha): 70
- Soybean plant response rating (soybean (Glycine max); 125 g ai/ha): 65
- Plant response rating, Chickweed ([2]; 16 g ai/ha, scale of 0 to 100): 80
- Plant response rating, Chickweed ([2]; 31 g ai/ha, scale 0 to 100): 80
- Chickweed plant response rating ([2]; 62 g ai/ha): 100
- Chickweed plant response rating ([2]; 125 g ai/ha): 100
- Plant response rating, Foxtail, Giant ([3]; 16 g ai/ha, scale of 0 to 100): 10
- Plant response rating, Foxtail, Giant ([3]; 31 g ai/ha, scale 0 to 100): 20
- Foxtail, Giant plant response rating ([3]; 62 g ai/ha): 25
- Foxtail, Giant plant response rating ([3]; 125 g ai/ha): 70
- Plant response rating, Velvetleaf ([4]; 16 g ai/ha, scale of 0 to 100): 35
- Plant response rating, Velvetleaf ([4]; 31 g ai/ha, scale 0 to 100): 50
- Velvetleaf plant response rating ([4]; 62 g ai/ha): 55
- Velvetleaf plant response rating ([4]; 125 g ai/ha): 65
- Plant response rating, Lambsquarters ([5]; 16 g ai/ha, scale of 0 to 100): 55
- Plant response rating, Lambsquarters ([5]; 31 g ai/ha, scale 0 to 100): 75
- Lambsquarters plant response rating ([5]; 62 g ai/ha): 70
- Lambsquarters plant response rating ([5]; 125 g ai/ha): 90
- Plant response rating, Oilseed Rape ([6]; 16 g ai/ha, scale of 0 to 100): 10
- Plant response rating, Oilseed Rape ([6]; 31 g ai/ha, scale 0 to 100): 70
- Oilseed Rape plant response rating ([6]; 62 g ai/ha): 70
- Oilseed Rape plant response rating ([6]; 125 g ai/ha): 85
- Plant response rating, Oat, Wild ([7]; 16 g ai/ha, scale of 0 to 100): 0
- Plant response rating, Oat, Wild ([7]; 31 g ai/ha, scale 0 to 100): 5
- Oat, Wild plant response rating ([7]; 62 g ai/ha): 10
- Oat, Wild plant response rating ([7]; 125 g ai/ha): 15
- Plant response rating, Nutsedge, Yellow ([8]; 16 g ai/ha, scale of 0 to 100): 5
- Plant response rating, Nutsedge, Yellow ([8]; 31 g ai/ha, scale 0 to 100): 10
- Nutsedge, Yellow plant response rating ([8]; 62 g ai/ha): 15
- Nutsedge, Yellow plant response rating ([8]; 125 g ai/ha): 15
- Plant response rating, Corn (corn (Zea mays); 16 g ai/ha, scale of 0 to 100): 15
- Plant response rating, Corn (corn (Zea mays); 31 g ai/ha, scale 0 to 100): 15
- Corn plant response rating (corn (Zea mays); 62 g ai/ha): 20
- Corn plant response rating (corn (Zea mays); 125 g ai/ha): 25
- Plant response rating, Blackgrass ([9]; 16 g ai/ha): 5
- Plant response rating, Blackgrass ([9]; 31 g ai/ha): 20
- Blackgrass plant response rating ([9]; 62 g ai/ha): 20
- Blackgrass plant response rating ([9]; 125 g ai/ha): 25
- Plant response rating, Galium ([10]; 16 g ai/ha, scale of 0 to 100): 75
- Plant response rating, Galium ([10]; 31 g ai/ha, scale 0 to 100): 98
- Galium plant response rating ([10]; 62 g ai/ha): 95
- Galium plant response rating ([10]; 125 g ai/ha): 98
- Plant response rating, Wheat ([11]; 16 g ai/ha, scale of 0 to 100): 0
- Plant response rating, Wheat ([11]; 31 g ai/ha, scale 0 to 100): 0
- Wheat plant response rating ([11]; 62 g ai/ha): 10
- Wheat plant response rating ([11]; 125 g ai/ha): 30
- Plant response rating, Kochia (kochia (Kochia scoparia); 16 g ai/ha, scale of 0 to 100): 95
- Plant response rating, Kochia (kochia (Kochia scoparia); 31 g ai/ha, scale 0 to 100): 100
- Kochia plant response rating (kochia (Kochia scoparia); 62 g ai/ha): 100
- Kochia plant response rating (kochia (Kochia scoparia); 125 g ai/ha): 100
- Plant response rating, Waterhemp ([12]; 16 g ai/ha, scale of 0 to 100): 95
- Plant response rating, Waterhemp ([12]; 31 g ai/ha, scale 0 to 100): 98
- Waterhemp plant response rating ([12]; 62 g ai/ha): 100
- Waterhemp plant response rating ([12]; 125 g ai/ha): 100
- Plant response rating, Ragweed ([13]; 16 g ai/ha, scale of 0 to 100): 40
- Plant response rating, Ragweed ([13]; 31 g ai/ha, scale 0 to 100): 40
- Ragweed plant response rating ([13]; 62 g ai/ha): 35
- Ragweed plant response rating ([13]; 125 g ai/ha): 70

Source: patent publication US11053204B2, “Pyrimidinyloxy benzene derivatives as herbicides” (FMC Corporation, priority 2015, dated 2021)
